Source: PubChem BioAssay AID2060908 (Molecular Pharmacology Branch, DTP, NCI, 2025)

Test system: 186277-243-T-J2-PDC complex spheroids, viability
Experiment: Anticancer human tumor 186277-243-T-J2-PDC patient-derived colon adenocarcinoma cell line growth inhibition [RAS]
Details: for viability, T/C: stronger effect = lower value; active = viability on the fitted dose curve at most 10% of control; inactive = the rest
How it was run: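 Multi-cell-type spheroids: tumor cells plus HUVEC endothelial cells and mesenchymal stem cells. RAS-pathway inhibitors were combined with targeted agents, each dosed in half-log steps down from clinical Cmax, or from 10 microM when Cmax was unknown.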
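Also: spheroids exposed to compounds for 7 days before viability read.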

CC1(O)CCCC1n1c(=O)c(C(F)F)cc2cnc(NC3CCN(S(C)(=O)=O)CC3)nc21 (stereo unspecified) + CCn1c(-c2cc(N3CCN(C)CC3)cnc2C(C)OC)c2c3cc(ccc31)-c1csc(n1)CC(NC(=O)C1CC1C)C(=O)N1CCCC(N1)C(=O)OCC(C)(C)C2
inactive: viability, T/C (second compound 0.000949 µM, first compound 0.0316 µM) 124% | viability, T/C (second compound 0.000949 µM, first compound 0.1 µM) 104% | viability, T/C (second compound 0.000949 µM, first compound 0.316 µM) 108% | viability, T/C (second compound 0.000949 µM, first compound 1 µM) 86.7% | viability, T/C (second compound 0.000949 µM, first compound 3.16 µM) 61.8% | viability, T/C (second compound 0.003 µM, first compound 0.0316 µM) 116% | viability, T/C (second compound 0.003 µM, first compound 0.1 µM) 107% | viability, T/C (second compound 0.003 µM, first compound 0.316 µM) 60.8% | viability, T/C (second compound 0.003 µM, first compound 1 µM) 55.4% | viability, T/C (second compound 0.003 µM, first compound 3.16 µM) 36.9% | viability, T/C (second compound 0.00949 µM, first compound 0.0316 µM) 47.4% | viability, T/C (second compound 0.00949 µM, first compound 0.1 µM) 41% | viability, T/C (second compound 0.00949 µM, first compound 0.316 µM) 23.6% | viability, T/C (second compound 0.00949 µM, first compound 1 µM) 20.1% | viability, T/C (second compound 0.00949 µM, first compound 3.16 µM) 14% | viability, T/C (second compound 0.03 µM, first compound 0.0316 µM) 15.2% | viability, T/C (second compound 0.03 µM, first compound 0.1 µM) 11.5% | viability, T/C (second compound 0.03 µM, first compound 0.316 µM) 10.6%
1080 nM: IC50 (curve of first compound, second compound 0.003 µM)
< 31.6 nM: IC50 (curve of first compound, second compound 0.00949 µM) | IC50 (curve of first compound, second compound 0.03 µM) | IC50 (curve of first compound, second compound 0.0949 µM) | IC50 (curve of first compound, second compound 0.3 µM)
active: viability, T/C (second compound 0.000949 µM, first compound 10 µM) 1.35% | viability, T/C (second compound 0.003 µM, first compound 10 µM) 0.72% | viability, T/C (second compound 0.00949 µM, first compound 10 µM) 0.4% | viability, T/C (second compound 0.03 µM, first compound 1 µM) 9.98% | viability, T/C (second compound 0.03 µM, first compound 3.16 µM) 7.39% | viability, T/C (second compound 0.03 µM, first compound 10 µM) 0.34% | viability, T/C (second compound 0.0949 µM, first compound 0.0316 µM) 9.76% | viability, T/C (second compound 0.0949 µM, first compound 0.1 µM) 7.17% | viability, T/C (second compound 0.0949 µM, first compound 0.316 µM) 6.71% | viability, T/C (second compound 0.0949 µM, first compound 1 µM) 6.53% | viability, T/C (second compound 0.0949 µM, first compound 3.16 µM) 5.94% | viability, T/C (second compound 0.0949 µM, first compound 10 µM) 0.31% | viability, T/C (second compound 0.3 µM, first compound 0.0316 µM) 6.48% | viability, T/C (second compound 0.3 µM, first compound 0.1 µM) 6.07% | viability, T/C (second compound 0.3 µM, first compound 0.316 µM) 5.61% | viability, T/C (second compound 0.3 µM, first compound 1 µM) 5.93% | viability, T/C (second compound 0.3 µM, first compound 3.16 µM) 5.05% | viability, T/C (second compound 0.3 µM, first compound 10 µM) 0.34%
3790 nM: IC50 (curve of first compound, second compound 0.000949 µM)

Nc1ccn(C2OC(CO)C(O)C2(F)F)c(=O)n1 (stereo unspecified)
12.1% [middle of 4 runs]: viability, T/C (compound 1 µM)
12.9% [middle of 4 runs]: viability, T/C (compound 0.1 µM)
12% [middle of 4 runs]: viability, T/C (compound 0.0316 µM)
10.6% [middle of 4 runs]: viability, T/C (compound 0.316 µM)
3.81 nM [middle of 4 runs]: IC50 (curve of compound)
inactive: viability, T/C (compound 0.00316 µM) 57.2% [middle of 4 runs] | viability, T/C (compound 0.01 µM) 12.7% [middle of 4 runs]

CCN1CCN(Cc2ccc(Nc3ncc(F)c(-c4cc(F)c5nc(C)n(C(C)C)c5c4)n3)nc2)CC1 + C#Cc1c(F)ccc2cc(O)cc(-c3ncc4c(N5CC6CCC(C5)N6)nc(OCC56CCCN5CC(F)C6)nc4c3F)c12
281 nM: IC50 (curve of first compound, second compound 0.0316 µM)
inactive: viability, T/C (second compound 0.0316 µM, first compound 0.00316 µM) 84.9% | viability, T/C (second compound 0.0316 µM, first compound 0.01 µM) 69.9% | viability, T/C (second compound 0.0316 µM, first compound 0.0316 µM) 66.7% | viability, T/C (second compound 0.0316 µM, first compound 0.1 µM) 67.2% | viability, T/C (second compound 0.0316 µM, first compound 0.316 µM) 49.2% | viability, T/C (second compound 0.0316 µM, first compound 1 µM) 22% | viability, T/C (second compound 0.1 µM, first compound 0.00316 µM) 65% | viability, T/C (second compound 0.1 µM, first compound 0.01 µM) 55.3% | viability, T/C (second compound 0.1 µM, first compound 0.0316 µM) 41.7% | viability, T/C (second compound 0.1 µM, first compound 0.1 µM) 31.1% | viability, T/C (second compound 0.1 µM, first compound 0.316 µM) 24% | viability, T/C (second compound 0.1 µM, first compound 1 µM) 16.7% | viability, T/C (second compound 0.316 µM, first compound 0.00316 µM) 28.9% | viability, T/C (second compound 0.316 µM, first compound 0.01 µM) 25.2% | viability, T/C (second compound 0.316 µM, first compound 0.0316 µM) 21.7% | viability, T/C (second compound 0.316 µM, first compound 0.1 µM) 16.6% | viability, T/C (second compound 0.316 µM, first compound 0.316 µM) 16.9% | viability, T/C (second compound 0.316 µM, first compound 1 µM) 13.1% | viability, T/C (second compound 1 µM, first compound 0.00316 µM) 13.1% | viability, T/C (second compound 1 µM, first compound 0.01 µM) 16.7% | viability, T/C (second compound 1 µM, first compound 0.0316 µM) 14.2% | viability, T/C (second compound 1 µM, first compound 0.1 µM) 11.6% | viability, T/C (second compound 1 µM, first compound 0.316 µM) 15.6% | viability, T/C (second compound 1 µM, first compound 1 µM) 11.4% | viability, T/C (second compound 3.16 µM, first compound 0.00316 µM) 12.8% | viability, T/C (second compound 3.16 µM, first compound 0.01 µM) 10.5% | viability, T/C (second compound 3.16 µM, first compound 0.0316 µM) 9.68% | viability, T/C (second compound 3.16 µM, first compound 0.1 µM) 10.6% | viability, T/C (second compound 3.16 µM, first compound 0.316 µM) 11.5% | viability, T/C (second compound 3.16 µM, first compound 1 µM) 10.6% | viability, T/C (second compound 10 µM, first compound 0.00316 µM) 10.4%
active: viability, T/C (second compound 10 µM, first compound 0.01 µM) 8.81% | viability, T/C (second compound 10 µM, first compound 0.0316 µM) 10.7% | viability, T/C (second compound 10 µM, first compound 0.1 µM) 9.4% | viability, T/C (second compound 10 µM, first compound 0.316 µM) 9.61% | viability, T/C (second compound 10 µM, first compound 1 µM) 7.42%
< 3.16 nM: IC50 (curve of first compound, second compound 0.316 µM) | IC50 (curve of first compound, second compound 1 µM) | IC50 (curve of first compound, second compound 3.16 µM) | IC50 (curve of first compound, second compound 10 µM)
14.9 nM: IC50 (curve of first compound, second compound 0.1 µM)
